Laboratory results taken from US6894003B2, “Enhancement of the activity of carotenoid biosynthesis inhibitor herbicides” (BASF Aktiengesellschaft, priority 2000, dated 2005).

Legend:
Format in all cases: in vivo
[1] = test system: Alopecurus myosuroides; assay: Greenhouse pre-emergence weed control, blackgrass; conditions: for Weed Control (20 DAT) ALOMY: vs untreated check
Text: (§1) Seeds of the monocotyledonous and dicotyledonous test plants are separately mixed with potting soil and planted on top of approximately one inch of soil in separate pint cups. After planting, the cups are subjected to the following treatments:
(§2) Technical TTP (treatment H) is applied as a dispersion in acetone using a single-nozzle overhead track pneumatic sprayer, while granular or powder formulations (treatments I-K) are applied by shaking the solid granules or powder directly and evenly onto the soil surface.
(§3) The treated cups are then placed on greenhouse benches, watered and cared for in accordance with conventional greenhouse procedures. Twenty days after treatment (DAT), the seedling plants are examined, and the % weed control as compared to untreated check is recorded (Table I).

[2] = test system: Lolium perenne; assay: Greenhouse pre-emergence weed control, ryegrass; conditions: vs untreated check
Text: as §1, §2, §3

[3] = test system: Setaria viridis; assay: Greenhouse pre-emergence weed control, green foxtail; conditions: vs untreated check
Text: as §1, §2, §3

[4] = test system: Galium aparine; assay: Greenhouse pre-emergence weed control, Galium; conditions: for Weed Control (20 DAT) GALAP: vs untreated check
Text: as §1, §2, §3

[5] = test system: Matricaria inodora vulgare; assay: Greenhouse pre-emergence weed control, Matricaria; conditions: vs untreated check
Text: as §1, §2, §3

[6] = test system: Papaver rhoeas; assay: Greenhouse pre-emergence weed control, poppy; conditions: vs untreated check
Text: as §1, §2, §3

[7] = test system: Veronica persica; assay: Greenhouse pre-emergence weed control, Veronica; conditions: vs untreated check
Text: as §1, §2, §3

[8] = test system: Hordeum vulgare (variety Mammut); assay: Crop phytotoxicity, winter barley (variety Mammut); conditions: assessed visually
Text: as §1, §2
The treated cups are then placed on greenhouse benches, watered and cared for in accordance with conventional greenhouse procedures. […]

[9] = test system: Triticum aestivum (variety Kanzler); assay: Crop phytotoxicity, winter wheat (variety Kanzler); conditions: assessed visually
Text: as §1, §2, §3

## FC(F)(F)c1ccc(-c2nccc(Oc3cccc(C(F)(F)F)c3)n2)cc1 [H, 4-(3-trifluoromethylphenoxy)-2-(4-trifluoromethylphenyl)-pyrimidine]
[1]; 0.060 kg/ha
  Weed Control (20 DAT) ALOMY: 22.5%
[1]; 0.120 kg/ha
  Weed Control (20 DAT) ALOMY: 77.5%
[1]; 0.240 kg/ha
  Weed Control (20 DAT) ALOMY: 98.5%
[1]; 0.480 kg/ha
  Weed Control (20 DAT) ALOMY: 99.0%
[1]; greenhouse
  Rate required to control Alopecurus: 240 g/ha
[2]; 0.060 kg/ha
  Weed Control (20 DAT) LOLPE: 91.5%
[2]; 0.120 kg/ha
  Weed Control (20 DAT) LOLPE: 98.5%
[2]; 0.240 kg/ha
  Weed Control (20 DAT) LOLPE: 99.0%
[2]; 0.480 kg/ha
  Weed Control (20 DAT) LOLPE: 99.0%
[3]; 0.060 kg/ha
  Weed Control (20 DAT) SETVI: 96.5%
[3]; 0.120 kg/ha
  Weed Control (20 DAT) SETVI: 100.0%
[3]; 0.240 kg/ha
  Weed Control (20 DAT) SETVI: 100.0%
[3]; 0.480 kg/ha
  Weed Control (20 DAT) SETVI: 100.0%
[4]; 0.060 kg/ha
  Weed Control (20 DAT) GALAP: 67.5%
[4]; 0.120 kg/ha
  Weed Control (20 DAT) GALAP: 72.5%
[4]; 0.240 kg/ha
  Weed Control (20 DAT) GALAP: 98.0%
[4]; 0.480 kg/ha
  Weed Control (20 DAT) GALAP: 98.0%
[4]; greenhouse
  Rate required to control Galium: 240 g/ha
[5]; 0.060 kg/ha
  Weed Control (20 DAT) MATIN: 98.5%
[5]; 0.120 kg/ha
  Weed Control (20 DAT) MATIN: 99.0%
[5]; 0.240 kg/ha
  Weed Control (20 DAT) MATIN: 99.0%
[5]; 0.480 kg/ha
  Weed Control (20 DAT) MATIN: 100.0%
[6]; 0.060 kg/ha
  Weed Control (20 DAT) PAPRH: 99.5%
[6]; 0.120 kg/ha
  Weed Control (20 DAT) PAPRH: 99.5%
[6]; 0.240 kg/ha
  Weed Control (20 DAT) PAPRH: 100.0%
[6]; 0.480 kg/ha
  Weed Control (20 DAT) PAPRH: 100.0%
[7]; 0.060 kg/ha
  Weed Control (20 DAT) VERPE: 99.5%
[7]; 0.120 kg/ha
  Weed Control (20 DAT) VERPE: 100.0%
[7]; 0.240 kg/ha
  Weed Control (20 DAT) VERPE: 100.0%
[7]; 0.480 kg/ha
  Weed Control (20 DAT) VERPE: 100.0%
[8]; 0.060 kg/ha
  Crop Phytotoxicity 11 DAT HORVWM: 20.0
  Crop Phytotoxicity 20 DAT HORVWM: 15.0
[8]; 0.120 kg/ha
  Crop Phytotoxicity 11 DAT HORVWM: 40.0
  Crop Phytotoxicity 20 DAT HORVWM: 25.0
[8]; 0.240 kg/ha
  Crop Phytotoxicity 11 DAT HORVWM: 42.5
  Crop Phytotoxicity 20 DAT HORVWM: 40.0
[8]; 0.480 kg/ha
  Crop Phytotoxicity 11 DAT HORVWM: 47.5
  Crop Phytotoxicity 20 DAT HORVWM: 45.0
[9]; 0.060 kg/ha
  Crop Phytotoxicity 11 DAT TRZAWK: 1.0
  Crop Phytotoxicity 20 DAT TRZAWK: 0.5
[9]; 0.120 kg/ha
  Crop Phytotoxicity 11 DAT TRZAWK: 2.5
  Crop Phytotoxicity 20 DAT TRZAWK: 1.0
[9]; 0.240 kg/ha
  Crop Phytotoxicity 11 DAT TRZAWK: 6.5
  Crop Phytotoxicity 20 DAT TRZAWK: 4.5
[9]; 0.480 kg/ha
  Crop Phytotoxicity 11 DAT TRZAWK: 14.0
  Crop Phytotoxicity 20 DAT TRZAWK: 10.0
